Test [1] deals with Passive cutaneous anaphylaxis (P.C.A.). Nature of the test: Inhibition of passive cutaneous anaphylaxis (P.C.A.). Conditions: Rattus norvegicus, 1 h; rats, 2 × 10^-5 mol/kg p.o., one hour before ovalbumin challenge. The class given is in vivo, rat (Sprague-Dawley). The procedure:
(§1) 1. Determination of the inhibition of passive cutaneous anaphylaxis (P.C.A.) and of the anaphylactoid cutaneous reaction induced by histamine.
The P.C.A. reaction was carried out according to the methods described by Goose et al. (J.N. Immunology 16 (1969), 749) and by Martin et al (Arch. Pharmacol. 316 (1981), 186}.
The IgE-rich ovalbumin antiserum used in the test was obtained from immunized Brown-Norway rats. For immunization, the rats were given an i.p. injection of a mixture of 100 μg of ovalbumin with a Bordetella pertussis suspension (Vaxicoq®, Manufacturer: Institut Merieux, containing 5×10^9 organisms and 1.25 mg of Al(OH)3). After 20 days, the animals received a further i.p. injection of a solution of 10 μg of ovaIbumin in 0.5 ml of physiological saline solution for reimmunisation. After a further four days, the animals were bled, and the blood was centrifuged The antiserum obtained in this way was stored at -20° C. until use.
(§2) The determination of the inhibition of passive cutaneous anaphylaxis and the anaphylactoid cutaneous reaction induced by histamine was carried out as follows:
Sprague-Dawley rats having a body weight of 150-180 g were injected intradermally in one flank with 50 μl of a 1:75 dilution of the IgE-rich ovalbumin antiserum in physiological sodium chloride solution for passive sensitization to ovalbumin.
24 hours after sensitization a solution of 8.25 mg/kg of ovalbumin and 26.4 mg/kg of a blue dye (Evans' Blue) was administered i.v. to the rats according to Martin et al. to induce passive cutaneous anaphylaxis. The ovalbumin challenge caused a local anaphylactic reaction at the site at which the antiserum had been injected.
(§3) On the test days, the test substances were dissolved in distilled water which contained 1% by volume of dimethylformamide and 1% by volume of Tween®20 (polyoxyethylene(20) sorbitan monolaurate). One hour before the challenging ovalbumin administration, each animal received 2×10^-5 mol/kg of test substance administered orally in 0.5 ml of solution. A control group received only the solvent for comparison.
(§4) The oedematous anaphylactic (P.C.A.) and anaphylactoid (histamine-induced) reactions caused by the challenging i.v. ovalbumin injection, which are manifested by oedema formation, swelling and exudation of blue dye, were evaluated 30 minutes after challenge by the i.v. ovalbumin injection. This was done by visual determination of the extent to which the blue dye emerges at the sites of oedema formation. The percentage inhibition of anaphylactic and anaphylactoid reactions caused by the test substances was determined in comparison with the reactions of the control animals not treated with test substance with the aid of comparison scales.
(§5) The results obtained by the above test methods using compounds of the formula I are shown in the following Table A. The example numbers given for the compounds of formula I relate to the following preparation examples.

For test [2], the system named is Histamine-induced anaphylactoid reactions. Nature of the test: Inhibition of anaphylactoid cutaneous reaction induced by histamine. The class given is in vivo, rat (Sprague-Dawley). Conditions: Rattus norvegicus, 1 h; rats, 2 × 10^-5 mol/kg p.o., one hour before challenge; histamine intradermal. The protocol: as §1, §2
To determine the histamine-induced anaphylactoid skin reaction, the animals were injected intradermally in the flank opposite to the antiserum administration with 50 μl of a physiological saline solution containing 0.8 mg/ml of histamine directly before the i.v. injection of the solution containing the ovalbumin and the blue dye.
as §3, §4, §5

The target of another test is T1, histamine (H1) receptor (Cavia porcellus, UniProt P31389).
T1 construct: isolated smooth muscle of the guinea-pig ileum; from tissue; host or cells: isolated ileum segments of Dunkin Hartley guinea-pigs
T1 sequence (P31389 whole entry): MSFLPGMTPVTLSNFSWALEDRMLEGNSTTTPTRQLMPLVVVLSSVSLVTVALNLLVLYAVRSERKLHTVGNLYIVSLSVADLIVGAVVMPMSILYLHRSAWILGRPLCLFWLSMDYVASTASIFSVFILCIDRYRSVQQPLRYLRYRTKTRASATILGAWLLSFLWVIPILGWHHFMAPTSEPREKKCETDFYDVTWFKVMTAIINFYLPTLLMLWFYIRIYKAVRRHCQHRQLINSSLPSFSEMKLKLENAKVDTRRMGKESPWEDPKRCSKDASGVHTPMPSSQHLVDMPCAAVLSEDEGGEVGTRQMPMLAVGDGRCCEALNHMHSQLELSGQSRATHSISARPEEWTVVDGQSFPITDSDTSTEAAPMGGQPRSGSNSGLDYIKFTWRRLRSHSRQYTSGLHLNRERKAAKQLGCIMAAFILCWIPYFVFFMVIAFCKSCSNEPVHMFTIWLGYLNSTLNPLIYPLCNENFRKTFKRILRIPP
Briefly: Antihistamine (H1) effect: inhibition of histamine-induced contractions of isolated guinea-pig ileum in vitro. Format: cell-based, guinea-pig (Dunkin Hartley). Conditions: histamine 5 × 10^-6 mol/l, test substance 10^-6 mol/l. The protocol:
3. Investigation of the antihistamine (H1) effect based on histamine (H1) receptor antagonism in vitro.
To investigate the histamine (H1) receptor antagonism of the substances, the inhibitory effect thereof on histamine-induced contractions of the smooth musculature of isolated organ was determined in vitro. Isolated strips of organ from the ileum were used. In an organ bath of physiological saline solution, they react to addition of histamine by contracting. Addition of the compounds of the invention decreases this histamine-induced contraction of the smooth musculature of the ileum strips. The extent of decrease of the contraction is an indication of the antihistamine (H1) activity of the compounds. The investigation is carried out analogously to the method originally described by Magnus (Pflugers Arch. 102, 123 (1904)).
Experimental description of the determination of the inhibitory effect on the contraction induced by a 5×10^-6 molar histamine concentration on isolated smooth muscle of the guinea-pig ileum.
For the test, 1.5 cm long segments of the ileum from Dunkin Hartley guinea-pigs having a body weight of 300-500 g were employed. Each strip was placed in an organ bath of 10 ml of Krebs-Henseleit physiological saline solution and attached to a customary apparatus for isotonically measuring changes in length of the ileum strip (automated Celaster measuring apparatus) so that the tissue is under a tension of 1 g. The bath was kept at a pH of 7.4 and aerated with a mixture of 5% CO2 and 95% O2. After an equilibration phase, an isotonic contraction of the tissue was produced by adding histamine in a final concentration of 5×10^-6 mol/l and was washed out again after a contact time of 30 seconds. Only those tissues in which three reproducible contractions were obtained at 10 minute intervals were used in the subsequent test. The test substances were then added in a final concentration of 10^-6 mol/l, and after a contact time of 30 seconds histamine was again added up to a concentration of 5×10^-6 mol/l. The contractions which occurred were measured over the course of 30 seconds. The tissue was then washed several times over a period of 10 minutes. A contraction challenge was then induced again by addition of histamine. The contractions which occurred were again measured over 30 seconds. The difference between the amplitude of the contraction obtained by histamine addition alone and the amplitude of the contraction obtained in the presence of the test substance was determined and calculated as % inhibition.
The inhibitory effects on the contractions induced by histamine 30 seconds after administration of the test substance and on the contractions induced by addition of histamine 10 minutes afterward are given in the table.

Test [3] deals with P.A.F.-induced aggregation of platelets from rabbit blood. Nature of the test: Anti-P.A.F. effect in vitro: inhibition of P.A.F.-induced platelet aggregation. The class given is cell-based, rabbit (New Zealand hybrids). The note with it: test substance concentration 10^-5 mol/l; for inhibition at 10 µM: Oryctolagus cuniculus, Platelet. An excerpt:
4. Determination of anti-P.A.F. effect in vitro.
Platelet-activating factor (P.A.F.) is a phospholipid mediator which has several effects. The activation of platelet aggregation leads to the induction of protracted broncho contractions and hyperreactivity of the airways.
The effects of the test substances on platelet aggregation induced by adding P.A.F. to a platelet suspension obtained from rabbit blood was investigated by the method described by Mikashima et al. (Jap. J. Pharmacol. 44 (1987) 387-391).
A suspension of platelets originating from rabbit blood was used which contained 4×10^9 platelets/ml in a modified Tyrode buffer solution adjusted to pH 7.4. Tyrode solution is an aqueous solution containing 136.9 mmol of NaCl, 2.68 mmol of KCl, 2.31 mmol of CaCl2, 1.0 mmol of MgCl2, 11.9 mmol of NaHCO3, 1.45 mmol of NaH2 PO4 and 5.55 mmol of glucose per liter. This solution was modified by adding 1.3 mM/l of CaCl2 and 2.5 g/l of gelatin. The platelets were obtained from 10 ml blood samples from each of three rabbits (New Zealand hybrids, body weight 3-4 kg). For this, the blood samples were treated with ethylenediaminetetraacetic acid and washed by the method of Artley et al. (Brit. J. Hamatol. 19 (1970), 7-17). A platelet-rich plasma was then initially separated by centrifugation (20 minutes at 400×g). The platelets were separated from the plasma by centrifuging again for 15 minutes at 1400×g. After centrifuging, the platelets remaining as a sediment were resuspended in a calcium-free Tyrode buffer solution. 0.4 mmol of lysine acetylsalicylate were then added and after 15 minutes the blood platelets were sedimented again. The sediment was resuspended in the abovementioned modified Tyrode buffer solution, and the number of platelets in the resulting suspension was adjusted to the desired content.
A 40×10^-9 molar P.A.F. solution was used as the reagent. This solution was prepared from a 1.8×10^-3 molar stock solution in chloroform. For this, a 10μl sample of the stock solution was evaporated to dryness and redissolved in 180 μl of the modified Tyrode solution, to which 0.25% of dilapidated bovine serum albumin had been added. 10^-5 molar working solutions were then prepared from this and stored frozen. Samples of these solutions were appropriately diluted for the tests.
To carry out the tests, 50 μl of the platelet solution and 10 μl of a 40×10^-5 molar solution of the compound to be investigated were added to 330 μl of the modified Tyrode buffer solution with stirring (1000 rpm) in an aggregation tube provided with a small magnetic stirrer. This corresponds to a final test substance concentration of 10^-5 mol/l. After a preincubation time of 90seconds, 10 μl of the P.A.F. preparation were added. The aggregation occurring in the aggregation tubes was measured for 4-5 minutes using a computerized aggregometer.
The aggregation occurring in the test tubes containing only platelet suspension was rated as 0%. The aggregation occurring in test tubes containing platelet suspension and P.A.F. preparation was rated as 100%. The aggregation which still occurred in the presence of the test substances (i.e. during inhibition of the P.A.F.-induced platelet aggregation increase) was measured, and the resulting aggregation inhibition is calculated from this in %.

Setting [4] is: after 30 sec., read-out: in vitro (H1) receptor antagonism % inhibitory effect on histamine-induced contractions of the Ileum, after 30 sec.
Setting [5] is: after 10 min. (after washing), read-out: in vitro (H1) receptor antagonism % inhibitory effect on histamine-induced contractions of the Ileum, after 10 min.

Read-outs that look alike come from different tables or passages of the source.

`Cc1ccnc(N2CCN(CCCc3c(C)n4c5c(cccc35)CCC4)CC2)c1` [Example 17, 5,6-dihydro-2-methyl-1-{3-[4-(4-methylpyridin-2-yl)piperazin-1-yl]-propyl}-4H-pyrrolo[3,2,1-ij]quinoline]: the inhibition in vivo at 20 µmol/kg in test [1] came to 45%; in test [2], 25%.

In the case of `Cc1ccnc(N2CCN(CCc3c(C)n4c5c(cccc35)CCC4CO)CC2)c1` (stereo not drawn) [Example 18, 5,6-Dihydro-4-hydroxymethyl-2-methyl-1-{2-[4-(4-methylpyridin-2-yl)piperazin-1-yl]ethyl}-4H-pyrrolo[3,2,1-ij]-quinoline], the inhibition at 1 µM on histamine (H1) receptor (setting [4]) turned out to be 29%; at histamine (H1) receptor (setting [5]), 72%. Also, the inhibition in vivo at 20 µmol/kg in test [1] was 90%; in test [2], 80%.

For `Cc1ccnc(N2CCN(CCc3c(C)n4c5c(cccc35)[S+]([O-])CC4)CC2)c1` (stereo not drawn) [Example 28a, 2,3-Dihydro-5-methyl-6-{2-[4-(4-methylpyridin-2-yl)-piperazin-1-yl]ethyl}-pyrrolo[1,2,3-de]-1,4-benzothiazine-1-oxide], the inhibition at 1 µM at histamine (H1) receptor (setting [4]) stood at 25%; on histamine (H1) receptor (setting [5]), 24%. Also, the inhibition in vivo at 20 µmol/kg in test [1] was found to be 100%; in test [2], 90%.

For the compound `CNc1cc2c3c(c1)c(CCN1CCN(c4cc(C)ccn4)CC1)c(C)n3CCC2` [Example 29, 5,6-Dihydro-2-methyl-8-methylamino-1-{2-[4-(4-methylpyridin-2-yl)piperazin-1-yl]ethyl}-4H-pyrrolo[3,2,1-ij]quinoline], on histamine (H1) receptor (after 30 sec.), the “in vitro (H1) receptor antagonism % inhibitory effect on histamine-induced contractions of the Ileum, after 30 sec.” value came out at 7%. Besides, the “in vitro (H1) receptor antagonism % inhibitory effect on histamine-induced contractions of the Ileum, after 10 min.” value at histamine (H1) receptor (after 10 min. (after washing)) came out at 30%.

On to `Cc1ccnc(N2CCN(CCc3c(C)n4c5c(cccc35)CCCC4)CC2)c1` [Example 31, 4,5,6,7-tetrahydro-2-methyl-1-{2-[4-(4-methylpyridin-2-yl)piperazin-1-yl]ethyl}-pyrrolo[3,2,1-jk]benzazepine], for which the inhibition at 1 µM at histamine (H1) receptor (setting [4]) was 31%; on histamine (H1) receptor (setting [5]) it was 89%. For the same compound, in test [3], the inhibition at 10 µM came to 95%.

Turning to `Cc1ccnc(N2CCN(CCc3c(Cc4ccccc4)n4c5c(cccc35)CCC4)CC2)c1` [Example 32, 2-Benzyl-5,6-dihydro-1-{2-[4-(4-methylpyridin-2-yl)-piperazin-1-yl]ethyl}-4H-pyrrolo[3,2,1-ij]quinoline], in test [3], the inhibition at 10 µM was determined as 100%.

Consider `CSc1cc2c3c(c1)c(CCN1CCN(c4cc(C)ccn4)CC1)c(C)n3CCS2` [Example 78], for which the figures for the inhibition at 1 µM at histamine (H1) receptor (setting [4]) and on histamine (H1) receptor (setting [5]) were 12% and 92%, respectively. Further, the inhibition at 10 µM in test [3] is 98%.

The compound `Cc1ccc(-c2c(CCN3CCN(c4cc(C)ccn4)CC3)c3cccc4c3n2CCC4)cc1` [Example 86] showed an inhibition at 10 µM in test [3] of 100%.

As to `Cc1ccc(N2CCN(CCc3c(C)n4c5c(cc(C(=O)C(C)C)cc35)CCC4)CC2)nc1` [Example 95], the inhibition at 1 µM on histamine (H1) receptor (setting [4]) was determined as 10%; on histamine (H1) receptor (setting [5]) it was 71%.

For `COc1ccc(-c2c(CCN3CCN(c4cc(C)ccn4)CC3)c3cccc4c3n2CCC4)cc1` [Example 96], the “% inhibition of the P.A.F.-induced aggregation of platelets from rabbit blood” value in test [3] is 98%.

For the compound `Cc1ccnc(N2CCN(CCc3c(-c4ccc(O)cc4)n4c5c(cccc35)CCC4)CC2)c1` [Example 97], the “% inhibition of the P.A.F.-induced aggregation of platelets from rabbit blood” value in test [3] worked out at 99%.
